For one data set, the system named is HT1080-WT cells. The data set is described as follows: Confocal microscopy of fluorescent tracer uptake, HT1080-WT. Type of data set: cell-based, human. Conditions: HT1080-WT (FAP-negative control), 1 nM. The procedure: (§1) Cell experiments were performed with the human sarcoma HT1080 cell line, stably transduced with human FAP (HT1080-huFAP) which were kindly provided by Prof. Dr. Uwe Haberkorn from the University of Heidelberg. The wild type HT1080 (ATTC), hereafter HT080-WT, was used as a negative control. Additionally, the pancreatic stellate cells PS-1, obtained from Queen Mary University, were used as an endogenously FAP expressing cell line. HT1080-huFAP and HT1080-WT cells were cultured in DMEM Glutamax© (Gibco; Breda, The Netherlands) and the PS-1 cells were cultured in RPMI (Gibco). Both media were supplemented with 10% FBS (Gibco), 100 UI/mL penicillin, and 100 µg/mL streptomycin (Merck Life Science NV; Amsterdam, The Netherlands). All cell lines were regularly passaged at 80% confluence and cultured at 37 °C, 5% CO2.
(§2) Fluorescent tracer uptake was analyzed on HT1080-huFAP, HT1080-WT, and PS-1 cells. One day prior to the assay 280,000 HT1080-huFAP, 300,000 HT1080-WT, and 460,000 PS-1 cells were seeded on […] coverslips in a 6-well plate. […] Cells incubated only in medium were taken along to correct for auto-fluorescence. […] Analyses were performed in Fiji (Schindelin et al. [2012]) and were subjected to a custom-made macro to correct for auto-fluorescence signal. […]

The subject of another data set is HT1080-huFAP cells. The data set is described as follows: Confocal microscopy of fluorescent tracer uptake, HT1080-huFAP. Type of data set: cell-based, human. The procedure: as §1, §2
A short description of data set [1]: Stability in PBS at 37 °C (radio-HPLC / LC-MS). It counts as physicochemical. Conditions: % intact labeled ligand, 37 °C. The procedure:
(§3) For the stability assessment of eFAP-6, [^111In]In-eFAP-6 or [^177Lu]Lu-eFAP-6 (~ 3–7 MBq, 20 µL) was mixed with 180 µL of PBS (0.01 M, pH 7.4) and incubated at 37 °C for up to 24 h. A sample of the PBS solution was directly injected on the radio-HPLC at 1, 4, and 24 h after incubation. Additionally, [^111In]In-eFAP-6 and [^177Lu]Lu-eFAP-6 (5–15 MBq, 50 µL) were incubated with 350 µL of commercially acquired mouse or human serum (Biolegend; San Diego, CA, USA) at 37 °C for up to 24 h. Following 1, 4, and 24 h of incubation, 50 µL of the solution were mixed with 50 µL of acetonitrile in an Eppendorf tube, and centrifuged at 5000× g for 20 min. The supernatant was then analyzed by radio-HPLC. Stability studies of eFAP-7 were performed by incubation of eFAP-7 (50 µL, 10^− 4 M) in 450 µL PBS or serum at 37 °C for up to 24 h. After 1, 4, and 24 h of incubation, 50 µL of the PBS incubation solution were directly analyzed by liquid chromatography-mass spectrometry (LC-MS), while 50 µL of the serum solution was mixed with 50 µL of acetonitrile in an Eppendorf tube, and centrifuged at 5000× g for 20 min, followed by LC-MS analyses.

Data set [2] can be described thus: Stability in human serum at 37 °C (radio-HPLC / LC-MS). Type of data set: in vitro ADME. The following applies: % intact labeled ligand, human serum, 37 °C. Here is the method:
as §3

A short description of data set [3]: LogD7.4 shake-flask method (n-octanol/PBS). It counts as physicochemical. The following applies: n-octanol/PBS (1:1 v/v); n-octanol/PBS pH 7.4, shake-flask. The procedure: The distribution coefficients (LogD7.4) were determined using a shake-flask method, in which 2 µL (~ 0.5 MBq) of [^111In]In-eFAP-6 or 10 µL of eFAP-7 (10^− 4 M) was added to an Eppendorf tube containing 1 mL of PBS (0.01 M, pH 7.4) and n-octanol (v/v, 1:1). After vigorous vortexing, the solution was centrifuged at 2500× g for 15 min for phase separation. For radiolabeled eFAP-6, samples (3 × 10 µL) of the octanol and aqueous phases were taken out and measured in a 1480 Wizard automatic γ-counter (PerkinElmer; Groningen, The Netherlands). LogD7.4 values were calculated by using the following equation: LogD7.4 = log [(counts in octanol phase)/(counts in aqueous phase)]. For eFAP-7, samples (50 µL) of the octanol and aqueous phases were taken out and measured by LC-MS. LogD7.4 values were calculated by using the following equation: LogD7.4 = log [(area in octanol phase)/(area in aqueous phase)].

The test system of the next data set is PS-1 cells. The data set is described as follows: Confocal microscopy of fluorescent tracer uptake, PS-1. Type of data set: cell-based. Here is the method:
as §1, §2

Regarding `CN1/C(=C/C=C/C=C/C2=[N+](CCCCCC(=O)NCCCOc3cccc4c(C(=O)NCC(=O)N5CC(F)(F)C[C@H]5C#N)ccnc34)c3ccc(S(=O)(=O)[O-])cc3C2(C)C)C(C)(C)c2cc(S(=O)(=O)O)ccc21` [eFAP-7, 1-(6-((3-((4-((2-((S)-2-cyano-4,4-difluoropyrrolidin-1-yl)-2-oxoethyl)carbamoyl)quinolin-8-yl)oxy)propyl)amino)-6-oxohexyl)-3,3-dimethyl-5-sulfo-2-((1E,3E)-5-((E)-1,3,3-trimethyl-5-sulfoindolin-2-ylidene)penta-1,3-dien-1-yl)-3H-indol-1-ium], in the data set with HT1080-WT cells, the “uptake in HT1080-WT cells” value is recorded as “no uptake was observed”. Also, the “sCy5 signal with an excess of UAMC-1110” value in the data set on HT1080-huFAP cells (1 nM tracer + 1 mM UAMC-1110) was “almost no visible signal”; with PS-1 cells (PS-1, 1 nM tracer + 1 mM UAMC-1110), “almost no visible signal”. The “sCy5 signal (uptake) in cells” value in the data set on HT1080-huFAP cells (1 nM, 15 and 45 min of incubation) was “a clear signal was visible”. Besides, the “Stability (% ± SD) PBS 1 h” value in data set [1] (1 h) is 99.5 ± 0.5%. For the same compound, the “Stability (% ± SD) PBS 4 h” value in data set [1] (4 h) is 99.2 ± 0.7%. Besides, the “Stability (% ± SD) PBS 24 h” value in data set [1] (24 h) is 99.1 ± 0.1%. In addition, in data set [2] (1 h), the “Stability (% ± SD) Human serum 1 h” value was 87.6 ± 0.9%. For the same compound, the “Stability (% ± SD) Human serum 4 h” value in data set [2] (4 h) is recorded as 87.9 ± 2.3%. Further, the “Stability (% ± SD) Human serum 24 h” value in data set [2] (24 h) is 85.5 ± 2.1%. In addition, in data set [3], the logD – broadly, the decadic logarithm of the distribution of all forms, ionised or not, between an organic phase and buffer at a given pH – was -0.94 ± 0.26. The “uptake in PS-1 cells relative to HT1080-huFAP” value in the data set on PS-1 cells (PS-1, 1 nM, 15 and 45 min) is “visibly lower than for HT1080-huFAP”.
